In one assay the target is cIAP1-BIR2 (Homo sapiens (Human), UniProt Q13490). In words: BIR binding assay (FRET competition), cIAP1 BIR2. Here is the method: (§1) The BIR domain binding assays are FRET based competition assays that utilize His-tagged versions of each of the BIR2 and BIR3 domains from cIAP1, cIAP2, and XIAP (each domain assayed separately) each at a custom optimal concentration and a probe, 200 nM SMAC/DIABLO peptide […] labelled with AlexaFluor647 (part #crb 1110326h, Discovery Peptides). The assay is conducted in 50 mM HEPES, […], 1 mM CHAPS, 5% Glycerol, 1 mM DTT, in dI water with a final pH of 7.4 and final volume of 20 uL. Final protein domain concentrations are: 50 nM cIAP1-BIR3 (Part #APT-11-370 Reaction Biology), 100 nM XIAP-BIR3 (Part #APT-11-351 Reaction Biology), 200 nM XIAP-BIR2 (Part #APT-11-470 Reaction Biology), 325 nM cIAP2-BIR2 (Part #APT-11-489 Reaction Biology), 50 nM cIAP2-BIR3 (Part #APT-11-372 Reaction Biology), 325 nM cIAP1-BIR2 (Part #APT-11-487 Reaction Biology). Compounds were plated using a HP Tecan D300 printer in a final total volume of 202 nl and DMSO concentration normalized across the 15-point, 3-fold dilution series. Peptide and probe were prepared at 2× relative to the concentrations above in binding buffer, 10 uL added to the prepared compound plates, and incubated for 60 minutes. LANCE Eu-W1024 (part #AD0401 Perkin Elmer #, vendor) was prepared at 2× concentration in binding buffer for final concentration of 2 nM, 10 uL added to each well, and plates incubated for 30 minutes. Plates were read on an ENVISION multifunction plate reader with […] laser excitation to obtain the 615 nm/665 nm emission ratio as indicative of probe:protein proximity. Data was analyzed using GraphPad PRISM and curves fit using log(inhibitor) vs. response—Variable slope (four […] method to obtain IC50 and pIC50 values.

A further assay has as its target cIAP1-BIR3 (Homo sapiens (Human), UniProt Q13490). As to the kind of experiment: BIR binding assay (FRET competition), cIAP1 BIR3. The following applies: for cIAP1 BIR3 vs BIR2 separation window: fold separation (FS) for cIAP1. A digest of the protocol:
(§2)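 Compounds tested as 15-point, 3-fold series displacing 200 nM AlexaFluor647-labelled SMAC peptide from His-tagged BIR domain (cIAP1-BIR3 50 nM; cIAP1-BIR2 and cIAP2-BIR2 325 nM; XIAP-BIR3 100 nM), pH 7.4, 60 min. Eu-W1024 (2 nM) added 30 min; emission ratio fitted for IC50.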

In another assay the target is cIAP2-BIR2 (Homo sapiens (Human), UniProt Q13489). In words: BIR binding assay (FRET competition), cIAP2 BIR2. Here is the method:
as §1

The test system of assay [1] is Jurkat HIV-luciferase clones. As to the kind of experiment: Jurkat latency reversal assay. In kind it is cell-based. As to conditions: Homo sapiens, 48 h; Jurkat latency reversal assay potency; read-out: Jurkat pEC50 (converted). The gist of the method:
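Compounds are titrated 3-fold over 14 points from 10 μM in duplicate at 0.5% DMSO. Clones C16, 115 and N6, grown with 500 nM EFV, are co-incubated for 48 h at 37° C. Virally driven luciferase is read by luminescence, and EC50 and maximal percent activation versus vehicle come from a four-parameter model.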

For the next assay, the target named is cIAP2-BIR3 (Homo sapiens (Human), UniProt Q13489). In words: BIR binding assay (FRET competition), cIAP2 BIR3. The following applies: for cIAP2 BIR3 vs BIR2 separation window: fold separation (FS) for cIAP2.
A further assay deals with XIAP-BIR3 (Homo sapiens (Human), UniProt P98170). As to the kind of experiment: BIR binding assay (FRET competition), XIAP BIR3. A digest of the protocol:
as §2

pIC50: −log10 of the molar value.

This is an account of results in patent publication US20250326771A1, “PIPERAZINE DERIVATIVES USEFUL IN HIV THERAPY” (VIIV HEALTHCARE COMPANY, priority 2022, published 2025).

Usually pIC50 stands for the IC50 on a negative log10 scale, so that one unit is a factor of ten.

cIAP2-BIR3, sequence (Q13489 238-349): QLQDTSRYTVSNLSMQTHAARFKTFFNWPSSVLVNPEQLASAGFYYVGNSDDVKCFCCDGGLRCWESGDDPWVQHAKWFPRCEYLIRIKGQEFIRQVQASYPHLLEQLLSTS
XIAP-BIR3, sequence (P98170 241-356): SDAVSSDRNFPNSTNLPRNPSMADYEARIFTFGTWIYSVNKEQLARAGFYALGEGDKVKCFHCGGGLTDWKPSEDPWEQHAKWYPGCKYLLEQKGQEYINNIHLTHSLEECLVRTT
cIAP1-BIR2, sequence (Q13490 173-257): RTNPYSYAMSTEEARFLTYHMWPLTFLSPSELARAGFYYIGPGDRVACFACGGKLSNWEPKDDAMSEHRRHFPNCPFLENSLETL
cIAP2-BIR2, sequence (Q13489 158-242): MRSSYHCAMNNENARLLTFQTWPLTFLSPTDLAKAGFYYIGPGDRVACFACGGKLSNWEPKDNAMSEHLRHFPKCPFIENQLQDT
cIAP1-BIR3, sequence (Q13490 253-363): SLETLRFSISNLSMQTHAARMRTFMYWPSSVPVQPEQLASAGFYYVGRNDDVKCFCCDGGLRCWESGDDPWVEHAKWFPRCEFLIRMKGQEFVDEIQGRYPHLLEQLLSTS

Regarding `C[C@@H]1CN(CC(=O)N2CC(C)(C)c3[nH]c(=O)c(Cc4ccc(Cl)cc4C(F)(F)F)cc32)[C@@H](CN2CCO[C@H](C(=O)NCc3ccc(CNC(=O)[C@@H]4CN(C[C@H]5CN[C@H](C)CN5CC(=O)N5CC(C)(C)c6[nH]c(=O)c(Cc7ccc(Cl)cc7C(F)(F)F)cc65)CCO4)cc3)C2)CN1` [Compound 170, (2S,2′S)-N,N′-(1,4-phenylenebis(methylene)) bis(4-(((2R,5R)-1-(2-(6-(4-chloro-2-(trifluoromethyl)benzyl)-3,3-dimethyl-5-oxo-2,3,4,5-tetrahydro-1H-pyrrolo[3,2-b]pyridin-1-yl)-2-oxoethyl)-5-methylpiperazin-2-yl)methyl)morpholine-2-carboxamide)], the negative logarithm of the IC50 (pIC50) on cIAP1-BIR2 is 5.00 to 5.50; on cIAP1-BIR3, 8.10 to 8.86; on cIAP2-BIR2 it was 5.50 to 6.00; at cIAP2-BIR3, 8.10 to 8.86; at XIAP-BIR3 it was 7.50 to 7.80. The “cIAP1 BIR3 vs BIR2 separation window” value at cIAP1-BIR3 is “+++ (10,000>FS>1,000)”. In addition, the EC50 in assay [1] is 12.6 to 63.1 nM. Besides, the “cIAP2 BIR3 vs BIR2 separation window” value at cIAP2-BIR3 is listed as “+++ (10,000>FS>1,000)”.
Consider `C[C@@H]1CN(CC(=O)N2CC(C)(C)c3[nH]c(=O)c(Cc4ccc(Cl)cc4C#N)cc32)[C@@H](CN2CCO[C@H](C(=O)NCc3ccc(CNC(=O)[C@@H]4CN(C[C@H]5CN[C@H](C)CN5CC(=O)N5CC(C)(C)c6[nH]c(=O)c(Cc7ccc(Cl)cc7C#N)cc65)CCO4)cc3)C2)CN1` [Compound 171, (2S,2′S)-N,N′-(1,4-phenylenebis(methylene)) bis(4-(((2R,5R)-1-(2-(6-(4-chloro-2-cyanobenzyl)-3,3-dimethyl-5-oxo-2,3,4,5-tetrahydro-1H-pyrrolo[3,2-b]pyridin-1-yl)-2-oxoethyl)-5-methylpiperazin-2-yl)methyl)morpholine-2-carboxamide)], for which the pIC50 at cIAP1-BIR2 was 6.00 to 7.65; on cIAP1-BIR3, 8.10 to 8.86; on cIAP2-BIR2, 6.00 to 7.65; at cIAP2-BIR3, 8.10 to 8.86; at XIAP-BIR3, 6.30 to 7.50. Besides, the “cIAP1 BIR3 vs BIR2 separation window” value at cIAP1-BIR3 is given as “++ (1,000>FS>100)”. Besides, the EC50 in assay [1] is 12.6 to 63.1 nM. At cIAP2-BIR3, the “cIAP2 BIR3 vs BIR2 separation window” value is “++ (1,000>FS>100)”.
Take `CC(C)c1ccccc1Cc1cc2c([nH]c1=O)C(C)(C)CN2C(=O)CN1C[C@@H](C)NC[C@@H]1CN1CCO[C@H](C(=O)NCc2ccc(CNC(=O)[C@@H]3CN(C[C@H]4CN[C@H](C)CN4CC(=O)N4CC(C)(C)c5[nH]c(=O)c(Cc6ccccc6C(C)C)cc54)CCO3)cc2)C1` [Compound 173, (2S,2′S)-N,N′-(1,4-phenylenebis(methylene)) bis(4-(((2R,5R)-1-(2-(6-(2-isopropylbenzyl)-3,3-dimethyl-5-oxo-2,3,4,5-tetrahydro-1H-pyrrolo[3,2-b]pyridin-1-yl)-2-oxoethyl)-5-methylpiperazin-2-yl)methyl)morpholine-2-carboxamide)]: the negative-log IC50 (pIC50) on cIAP1-BIR2 was 4.29 to 5.00; at cIAP1-BIR3, 6.30 to 7.50; on cIAP2-BIR2, 5.00 to 5.50; at cIAP2-BIR3, 7.50 to 7.80; on XIAP-BIR3, 6.30 to 7.50. Further, the “cIAP1 BIR3 vs BIR2 separation window” value on cIAP1-BIR3 is listed as “+++ (10,000>FS>1,000)”. The EC50 in assay [1] is 63.1 to 316 nM. Also, at cIAP2-BIR3, the “cIAP2 BIR3 vs BIR2 separation window” value was “+++ (10,000>FS>1,000)”.
As to `C[C@@H]1CN(CC(=O)N2CC(C)(C)c3[nH]c(=O)c(Cc4cc(F)c(F)c(F)c4F)cc32)[C@@H](CN2CCO[C@H](C(=O)NCc3ccc(CNC(=O)[C@@H]4CN(C[C@H]5CN[C@H](C)CN5CC(=O)N5CC(C)(C)c6[nH]c(=O)c(Cc7cc(F)c(F)c(F)c7F)cc65)CCO4)cc3)C2)CN1` [Compound 174, (2S,2′S)-N,N′-(1,4-phenylenebis(methylene)) bis(4-(((2R,5R)-1-(2-(3,3-dimethyl-5-oxo-6-(2,3,4,5-tetrafluorobenzyl)-2,3,4,5-tetrahydro-1H-pyrrolo[3,2-b]pyridin-1-yl)-2-oxoethyl)-5-methylpiperazin-2-yl)methyl)morpholine-2-carboxamide)], the “cIAP1 BIR2 (pIC50)” value on cIAP1-BIR2 (FRET competition) is listed as “++ (5.00<pIC50<=5.50)”. The “cIAP1 BIR3 (pIC50)” value on cIAP1-BIR3 (FRET competition) is recorded as “+++ (8.10>pIC50>=7.80)”. The “cIAP1 BIR3 vs BIR2 separation window” value on cIAP1-BIR3 is “+++ (10,000>FS>1,000)”. Moreover, the “cIAP2 BIR2 (pIC50)” value at cIAP2-BIR2 (FRET competition) is given as “++ (5.00<pIC50<=5.50)”. The EC50 in assay [1] is 0.49 to 12.6 nM. The “cIAP2 BIR3 (pIC50)” value on cIAP2-BIR3 (FRET competition) is given as “+++ (8.10>pIC50>=7.80)”. The “cIAP2 BIR3 vs BIR2 separation window” value at cIAP2-BIR3 is reported as “+++ (10,000>FS>1,000)”. Besides, the “XIAP BIR3 (pIC50)” value on XIAP-BIR3 (FRET competition) is on record as “++ (7.80>pIC50>=7.50)”.
Regarding `C[C@@H]1CN(CC(=O)N2CC(C)(C)c3[nH]c(=O)c(Cc4c(F)c(F)c(F)c(F)c4F)cc32)[C@@H](CN2CCO[C@H](C(=O)NCc3ccc(CNC(=O)[C@@H]4CN(C[C@H]5CN[C@H](C)CN5CC(=O)N5CC(C)(C)c6[nH]c(=O)c(Cc7c(F)c(F)c(F)c(F)c7F)cc65)CCO4)cc3)C2)CN1` [Compound 176, (2S,2′S)-N,N′-(1,4-phenylenebis(methylene)) bis(4-(((2R,5R)-1-(2-(3,3-dimethyl-5-oxo-6-((perfluorophenyl)methyl)-2,3,4,5-tetrahydro-1H-pyrrolo[3,2-b]pyridin-1-yl)-2-oxoethyl)-5-methylpiperazin-2-yl)methyl)morpholine-2-carboxamide)], the negative logarithm of the IC50 (pIC50) on cIAP1-BIR2 was 5.00 to 5.50; at cIAP1-BIR3 it was 6.30 to 7.50; on cIAP2-BIR2 it was 5.00 to 5.50; at cIAP2-BIR3 it was 7.50 to 7.80; on XIAP-BIR3, 6.30 to 7.50. For the same compound, the “cIAP1 BIR3 vs BIR2 separation window” value at cIAP1-BIR3 is given as “++ (1,000>FS>100)”. Further, the EC50 in assay [1] is 0.49 to 12.6 nM. In addition, the “cIAP2 BIR3 vs BIR2 separation window” value at cIAP2-BIR3 is on record as “+++ (10,000>FS>1,000)”.
As to `C[C@@H]1CN(CC(=O)N2CC(C)(C)c3[nH]c(=O)c(Cc4ccc(F)c(F)c4F)cc32)[C@@H](CN2CCO[C@H](C(=O)NCc3ccc(CNC(=O)[C@@H]4CN(C[C@H]5CN[C@H](C)CN5CC(=O)N5CC(C)(C)c6[nH]c(=O)c(Cc7ccc(F)c(F)c7F)cc65)CCO4)cc3)C2)CN1` [Compound 178, (2S,2′S)-N,N′-(1,4-phenylenebis(methylene)) bis(4-(((2R,5R)-1-(2-(3,3-dimethyl-5-oxo-6-(2,3,4-trifluorobenzyl)-2,3,4,5-tetrahydro-1H-pyrrolo[3,2-b]pyridin-1-yl)-2-oxoethyl)-5-methylpiperazin-2-yl)methyl)morpholine-2-carboxamide)], the negative-log IC50 (pIC50) on cIAP1-BIR2 is 5.50 to 6.00; at cIAP1-BIR3, 7.50 to 7.80; at cIAP2-BIR2 it was 5.50 to 6.00; on cIAP2-BIR3 it was 7.80 to 8.10; on XIAP-BIR3, 7.50 to 7.80. For the same compound, the “cIAP1 BIR3 vs BIR2 separation window” value on cIAP1-BIR3 is “+++ (10,000>FS>1,000)”. Besides, the EC50 in assay [1] was 0.49 to 12.6 nM. Moreover, the “cIAP2 BIR3 vs BIR2 separation window” value at cIAP2-BIR3 is “+++ (10,000>FS>1,000)”.
`C[C@@H]1CN(CC(=O)N2CC(C)(C)c3[nH]c(=O)c(Cc4c(Cl)cc(Cl)cc4Cl)cc32)[C@@H](CN2CCO[C@H](C(=O)NCc3ccc(CNC(=O)[C@@H]4CN(C[C@H]5CN[C@H](C)CN5CC(=O)N5CC(C)(C)c6[nH]c(=O)c(Cc7c(Cl)cc(Cl)cc7Cl)cc65)CCO4)cc3)C2)CN1` [Compound 180, (2S,2′S)-N,N′-(1,4-phenylenebis(methylene)) bis(4-(((2R,5R)-1-(2-(3,3-dimethyl-5-oxo-6-(2,4,6-trichlorobenzyl)-2,3,4,5-tetrahydro-1H-pyrrolo[3,2-b]pyridin-1-yl)-2-oxoethyl)-5-methylpiperazin-2-yl)methyl)morpholine-2-carboxamide)]: the negative logarithm of the IC50 (pIC50) at cIAP1-BIR2 is 4.29 to 5.00; at cIAP1-BIR3, 6.30 to 7.50; at cIAP2-BIR2 it was 4.29 to 5.00; on cIAP2-BIR3, 6.30 to 7.50; on XIAP-BIR3, 6.30 to 7.50. The “cIAP1 BIR3 vs BIR2 separation window” value at cIAP1-BIR3 is on record as “++ (1,000>FS>100)”. Moreover, in assay [1], the EC50 was 63.1 to 316 nM. Moreover, the “cIAP2 BIR3 vs BIR2 separation window” value at cIAP2-BIR3 is on record as “++ (1,000>FS>100)”.
